Measurements published in US20250084039A1, “4-SUBSTITUTED AMINOISOQUINOLINE DERIVATIVES” (Purdue Research Foundation, priority 2016, published 2025).

Experiments:
FLT3 = FLT3 (Homo sapiens (Human), UniProt P36888); assay: Reaction Biology HotSpot kinase assay; type: biochemical; conditions: 500 nM compound; read-out: % inhibition of FLT3 activity
Protocol: (§1) The Reaction Biology Corporation (www.reactionbiology.com, Malvern, PA) HotSpot assay platform was used to measure kinase/inhibitor interactions exactly as previously described. Kinase and substrate were mixed in a buffer containing 20 mM HEPES pH 7.5, 10 mM MgCl2, 1 mM EGTA, 0.02% Brij35, 0.02 mg/mL BSA, 0.1 mM Na3VO4, 2 mM DTT and 1% DMSO. Single-dose of compounds (500 nM) were then added to each reaction mixture. After 20-minute incubation. ATP (Sigma) and [γ-^33P] ATP (Perkin Elmer) were added at a final total concentration of 100 μM for addition 2 hours at room temperature, followed by spotting onto P81 ion exchange cellulose chromatography paper (Whatman, Inc.). […] Percent remaining kinase activity of a vehicle (DMSO) containing kinase reaction was calculated for each kinase/inhibitor pair using Prism 5 (GraphPad).
as §1, with “1” for “DTT”, “incubation,” for “incubation.”

MOLM14 = assay: Anti-proliferative effects in leukemia panel; type: cell-based; conditions: for IC50: Homo sapiens, MOLM-14
Protocol: Molm-14 cells were the kind gift of Dr. Mark Levis from Johns Hopkins University. THP-1, MV4-11, K-562 and MRC-5A cells were purchased from ATCC (ATCC, Manassas, VA). All cell lines were grown in 37° C. with 5% CO2 atmosphere with RPMI 1640 (Life technologies, Carlsbad. CA) supplemented with heat-inactivated 10% (V/V) fetal bovine serum. Cell lines were grown and maintained according to ATCC recommendations.
(§2) Cell lines were seeded into 96-well plates the afternoon prior to treatment. Approximately 18 hours later, compounds were semi-serially diluted in dimethyl sulfoxide (DMSO) and then growth medium, and added to cells. Plates were incubated for 72 hours prior to addition of Alamar Blue (Life Technologies. Carlsbad, CA). Plates were read after 4 additional hours of incubation at 37° C. using a Bio-Tek Synergy HT plate reader (Bio-Tek, Winooski. VT). Data was analyzed and graphed using GraphPad Prism Software (Graphpad. La Jolla, CA).

MV4-11 [1] = assay: Anti-proliferative effects in leukemia panel; type: cell-based; conditions: for IC50: Homo sapiens, MV4-11
Protocol: Molm-14 cells were the kind gift of Dr. Mark Levis from Johns Hopkins University. […] Cell lines were grown and maintained according to ATCC recommendations.
as §2

c-kit = c-kit (Homo sapiens (Human), UniProt P10721); assay: Reaction Biology HotSpot kinase assay; type: biochemical; conditions: 500 nM compound, 100 μM radiolabeled ATP
Protocol: as §1
as §1, with “1” for “DTT”, “incubation,” for “incubation.”

TRKC = TRKC (Homo sapiens (Human), UniProt Q16288); assay: Reaction Biology HotSpot kinase assay; type: biochemical; conditions: 500 nM compound, 100 μM radiolabeled ATP
Protocol: as §1
as §1, with “1” for “DTT”, “incubation,” for “incubation.”

MV4-11 [2] = assay: Activity against AML cell line MV4-11 (CellTiter-Blue, 72 h); type: cell-based
Protocol: Cells were added to 96 well plates at 2000 cells per well for adherent lines and 4000 cells per well for suspension lines and kept in an incubator overnight. The following day the plates were treated with compounds to give rise to the final concentrations of; 100 μM, 10 μM, 5 μM 1 μM, 500 nM, 100 nM, 10 nM, […]. The plates were then stored in the incubator for 72 hours. On the third day the cells were assayed with 20 μL of CellTiter—Blue Cell Viability Assay per well and were incubated for 4 hours. After 4 hours' fluorescence intensity was taken on a plate reader: Excitation: 560/10 Emission: 590/10. IC50 analysis was performed on GraphPad Prism 7.

MV-4-11 = assay: Proliferation inhibition at single concentration (CellTiter-Blue); type: cell-based; conditions: 1 μM compound
MCF-7 = assay: as above; type: cell-based; conditions: 1 μM compound
Protocol: (§3) Plates were then treated with compound diluted in dimethyl sulfoxide (DMSO) as well as a DMSO control the following day for 72 hours. After this time the plates were then treated with 10 μL of CellTiter-Blue Cell Viability Assay (Promega, Madison, WI) for 4 hours. Then the plates were read on a plate reader (Bio-Tek, Winooski, VT). Data was analyzed on Excel as a percent of the DMSO vehicle.
(§4) Antiproliferative activities against AML cell line, MV4-11 (a FLT3-driven cell line) and three other solid tumors (MCF7, breast, HCT116, colon and HeLa) have been investigated (Tables 6A and 6B and FIG. 10).

HeLa = assay: as above; type: cell-based; conditions: 1 μM compound
Protocol: as §3, §4

HCT116 = assay: as above; type: cell-based; conditions: 1 μM compound
MV4-11 [3] = assay: IC50 proliferation assay (Alamar Blue, 72 h); type: cell-based; conditions: Homo sapiens, MV4-11, 72 h; read-out: IC50 (proliferation inhibition) Cell line - MV4-11
Protocol: as §2, with “IC50 proliferation assay—Cell” for “Cell”, “lines and primary cells” for “lines”, “Technologies,” for “Technologies.”, “Winooski,” for “Winooski.”, “(Graphpad,” for “(Graphpad.”, “Jolla.” for “Jolla,”
IC50 (proliferation inhibition) against leukemia cell lines MV4-11 and K562. […] MiaPaca-2 (Pancreatic cell line), HLY-1 (Lymphoma cell line), MV4-11 (AML, cell line) and K562 (CML cell line).

[4] = read-out: Anti-proliferative effects in leukemia panel (μM) MV4-11
[5] = Homo sapiens, MV4-11, 72 h, read-out: IC50 against MV4-11/uM
[6] = 72 h, read-out: IC50 against MV4-11/uM
[7] = FIG. 1, read-out: anticancer activities (IC50) against MV4-11

Chain of TRKC (Q16288 32-839): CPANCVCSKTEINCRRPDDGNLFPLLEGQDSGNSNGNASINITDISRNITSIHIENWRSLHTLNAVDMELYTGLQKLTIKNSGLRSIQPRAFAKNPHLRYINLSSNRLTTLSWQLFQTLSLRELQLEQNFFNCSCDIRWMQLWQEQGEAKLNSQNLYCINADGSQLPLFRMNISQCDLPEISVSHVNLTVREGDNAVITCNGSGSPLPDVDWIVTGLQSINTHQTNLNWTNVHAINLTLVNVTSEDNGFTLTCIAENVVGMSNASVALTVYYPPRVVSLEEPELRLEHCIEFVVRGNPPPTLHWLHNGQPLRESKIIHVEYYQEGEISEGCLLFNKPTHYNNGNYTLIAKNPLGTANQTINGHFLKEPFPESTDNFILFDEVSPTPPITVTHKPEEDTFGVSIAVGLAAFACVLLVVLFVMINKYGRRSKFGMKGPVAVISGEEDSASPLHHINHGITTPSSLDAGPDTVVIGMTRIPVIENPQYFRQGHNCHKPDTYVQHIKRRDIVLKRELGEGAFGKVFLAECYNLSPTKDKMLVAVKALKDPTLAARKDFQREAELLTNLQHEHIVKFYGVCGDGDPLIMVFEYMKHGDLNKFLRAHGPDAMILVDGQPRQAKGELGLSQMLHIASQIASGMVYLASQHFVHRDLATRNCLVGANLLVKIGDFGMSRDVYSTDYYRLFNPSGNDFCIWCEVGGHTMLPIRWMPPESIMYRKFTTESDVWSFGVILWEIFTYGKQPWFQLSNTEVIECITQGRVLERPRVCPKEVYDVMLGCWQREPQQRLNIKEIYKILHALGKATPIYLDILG
Chain of c-kit (P10721 26-976): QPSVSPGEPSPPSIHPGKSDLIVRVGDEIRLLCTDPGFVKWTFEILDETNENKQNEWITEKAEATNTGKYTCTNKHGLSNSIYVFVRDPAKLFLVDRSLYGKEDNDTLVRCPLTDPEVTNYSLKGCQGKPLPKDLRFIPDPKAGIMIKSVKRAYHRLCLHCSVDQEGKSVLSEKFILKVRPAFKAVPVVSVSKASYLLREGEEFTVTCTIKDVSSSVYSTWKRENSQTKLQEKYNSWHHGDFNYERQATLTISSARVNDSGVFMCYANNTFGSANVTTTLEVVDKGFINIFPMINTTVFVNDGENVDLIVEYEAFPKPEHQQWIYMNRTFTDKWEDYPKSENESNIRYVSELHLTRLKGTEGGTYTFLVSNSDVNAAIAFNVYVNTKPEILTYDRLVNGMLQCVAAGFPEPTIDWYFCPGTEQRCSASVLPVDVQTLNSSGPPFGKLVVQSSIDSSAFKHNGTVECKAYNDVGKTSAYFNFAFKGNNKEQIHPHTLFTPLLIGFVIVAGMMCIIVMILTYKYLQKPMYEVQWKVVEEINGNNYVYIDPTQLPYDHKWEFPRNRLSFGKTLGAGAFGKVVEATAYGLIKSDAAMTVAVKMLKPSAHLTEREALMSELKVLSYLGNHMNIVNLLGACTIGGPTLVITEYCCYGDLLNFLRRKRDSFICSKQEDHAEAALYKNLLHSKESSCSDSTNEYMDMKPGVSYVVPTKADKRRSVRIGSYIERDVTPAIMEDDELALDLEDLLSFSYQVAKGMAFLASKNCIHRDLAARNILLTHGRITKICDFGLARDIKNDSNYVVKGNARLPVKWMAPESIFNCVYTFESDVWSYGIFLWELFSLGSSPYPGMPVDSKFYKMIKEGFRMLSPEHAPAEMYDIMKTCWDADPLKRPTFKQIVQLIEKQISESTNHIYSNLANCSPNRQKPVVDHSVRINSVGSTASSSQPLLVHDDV
Chain of FLT3 (P36888 27-993): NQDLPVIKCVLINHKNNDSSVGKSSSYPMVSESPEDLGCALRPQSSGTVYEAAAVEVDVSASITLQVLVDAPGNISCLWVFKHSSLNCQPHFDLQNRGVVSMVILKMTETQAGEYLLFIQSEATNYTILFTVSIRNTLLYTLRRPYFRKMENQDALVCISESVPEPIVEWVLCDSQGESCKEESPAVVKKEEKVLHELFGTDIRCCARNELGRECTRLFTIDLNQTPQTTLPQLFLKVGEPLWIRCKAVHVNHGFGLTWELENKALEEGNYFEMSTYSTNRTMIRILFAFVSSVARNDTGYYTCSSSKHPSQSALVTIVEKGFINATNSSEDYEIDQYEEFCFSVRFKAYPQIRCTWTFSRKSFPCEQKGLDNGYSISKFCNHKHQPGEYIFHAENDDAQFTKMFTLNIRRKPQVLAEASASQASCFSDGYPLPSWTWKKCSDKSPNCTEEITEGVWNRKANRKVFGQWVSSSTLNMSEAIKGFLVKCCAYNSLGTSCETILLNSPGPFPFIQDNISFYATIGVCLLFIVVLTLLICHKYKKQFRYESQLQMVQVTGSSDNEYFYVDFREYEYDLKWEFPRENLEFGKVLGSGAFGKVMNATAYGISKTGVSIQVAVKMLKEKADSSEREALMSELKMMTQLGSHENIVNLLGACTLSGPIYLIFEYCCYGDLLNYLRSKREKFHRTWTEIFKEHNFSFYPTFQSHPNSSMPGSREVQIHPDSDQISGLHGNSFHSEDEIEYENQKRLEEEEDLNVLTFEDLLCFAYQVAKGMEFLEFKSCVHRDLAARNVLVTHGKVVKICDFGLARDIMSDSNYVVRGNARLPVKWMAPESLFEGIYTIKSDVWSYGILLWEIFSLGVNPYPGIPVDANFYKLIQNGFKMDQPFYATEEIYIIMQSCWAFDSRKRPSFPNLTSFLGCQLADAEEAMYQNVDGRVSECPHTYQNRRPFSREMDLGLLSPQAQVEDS

Row | Molecule | IC50 (MOLM14) | IC50 (MV4-11 [1]; [4]) | inhibition at 0.5 µM (c-kit) | inhibition at 0.5 µM (TRKC) | IC50 (MV4-11 [2]; [6]) | Percent inhibition of proliferation MV-4-11 (MV-4-11) | Percent inhibition of proliferation MCF-7 (MCF-7) | Percent inhibition of proliferation HeLa (HeLa) | Percent inhibition of proliferation HCT116 (HCT116) | further results
1 | CC1(COc2ccc3c(c2)ncn3-c2ccc3cccc(N4CCC(N)CC4)c3n2)COC1 [Crenolanib, reference compound] | 0.004 µM | 0.005 ± 0.001 µM | – | – | – | – | – | – | – | inhibition at 0.5 µM (FLT3): 99%; IC50 (MV4-11 [1]; read-out: anti-proliferative IC50): 0.005 µM
2 | N#Cc1ccc(C#Cc2c(N)ncc3ccc(Cl)cc23)cc1 [HSM1611, 4-((3-amino-6-chloroisoquinolin-4-yl)ethynyl)benzonitrile] | > 5 µM | > 5 µM | 63% | 16% | – | – | – | – | – | IC50 (MV4-11 [2]; [5]): 0.84 µM; anti-proliferative activity in words, MOLM-14 (MOLM14): ineffective; anti-proliferative activity in words, MV4-11 / AML cell lines (MV4-11 [1]): ineffective
3 | CN(C)CCCNC(=O)c1cccc(C#Cc2c(N)ncc3ccc(Cl)cc23)c1 [HSM1688] | – | – | – | – | 0.25 µM | 74% | 33% | 64% | 43% | IC50 (MV4-11 [2]; [7]): 0.25 µM
4 | COCCCNC(=O)c1ccc(C#Cc2c(N)ncc3ccc(Cl)cc23)cc1 [HSM1692] | – | – | – | – | 0.45 µM | 81% | 22% | 0% | 29% | IC50 (MV4-11 [2]; [7]): 0.45 µM
5 | Nc1ncc2ccc(Cl)cc2c1C#Cc1ccc(C2=NC(C3CC3)CN2)cc1 (centres unmarked) [HSM1703] | 0.1 µM | 0.3 ± 0.2 µM | 60% | 49% | – | – | – | – | – | –
6 | Nc1ncc2ccc(Cl)cc2c1C#Cc1ccccc1C(=O)NCCCN1CCCCC1 [HSM1717] | – | – | – | – | 0.05 µM | 82% | 76% | 2% | 33% | –
7 | Nc1ncc2ccc(Cl)cc2c1C#Cc1ccc(C2=NCCN2CCN2CCCCC2)cc1 [HSM1721] | 0.3 µM | 0.08 ± 0.02 µM | 80% | 52% | – | – | – | – | – | IC50 (MV4-11 [2]; [5]): 0.015 µM
8 | CC1(C)CNC(c2ccc(C#Cc3c(N)ncc4ccc(Cl)cc34)cc2)=N1 [HSM1743] | 0.3 µM | 0.07 ± 0.02 µM | 78% | 44% | – | – | – | – | – | –
9 | Nc1ncc2[nH]ccc2c1C#Cc1ccc(C2=NCCN2)cc1 [HSM1781] | > 5 µM | > 5 µM | – | – | – | – | – | – | – | anti-proliferative activity in words, MV4-11 / AML cell lines (MV4-11 [1]): ineffective
10 | Nc1ncc(C#Cc2ccc(C3=NCCN3)cc2)c2ccccc12 [HSM1795, 4-((4-(4,5-dihydro-1H-imidazol-2-yl)phenyl)ethynyl)isoquinolin-1-amine] | – | – | – | – | – | – | – | – | – | IC50 (MV4-11 [3]): 100 nM
11 | Nc1nnc2ccccc2c1C#Cc1ccc(C2=NCCN2)cc1 [HSM1796] | > 5 µM | > 5 µM | 3% | 7% | – | – | – | – | – | anti-proliferative activity in words, MV4-11 / AML cell lines (MV4-11 [1]): ineffective
12 | Nc1nccc(Cl)c1C#Cc1ccc(C2=NCCN2)cc1 [HSM1798] | > 5 µM | > 5 µM | 15% | 11% | – | – | – | – | – | anti-proliferative activity in words, MV4-11 / AML cell lines (MV4-11 [1]): ineffective
13 | C(#Cc1cncc2ccccc12)c1ccc(C2=NCCN2)cc1 [HSM1813] | > 5 µM | > 5 µM | 39% | 17% | – | – | – | – | – | anti-proliferative activity in words, MV4-11 / AML cell lines (MV4-11 [1]): not a potent inhibitor
14 | N=C(NO)c1cccc(C#Cc2c(N)ncc3ccc(Cl)cc23)c1 [HSM1819] | 0.06 µM | 0.02 ± 0.01 µM | 82% | 80% | – | – | – | – | – | anti-proliferative activity in words, MV4-11 / AML cell lines (MV4-11 [1]): very potent
15 | N=C(NO)c1ccc(C#Cc2c(N)ncc3ccc(Cl)cc23)cc1 [HSM1820] | 0.05 µM | 0.04 ± 0.01 µM | 86% | 74% | – | – | – | – | – | –
16 | CN(CCCN1CCCCC1)C(=O)c1ccc(C#Cc2c(N)ncc3ccc(Cl)cc23)cc1 [HSN105] | – | – | – | – | 0.061 µM | 88% | 12% | 1% | 40% | –
17 | Nc1ncc2ccc(Cl)cc2c1C#Cc1ccc(C(=O)N[C@H]2CC[C@H](N)CC2)cc1.O=C(O)C(F)(F)F [HSN129] | – | – | – | – | 0.008 µM | 99% | 37% | 22% | 29% | –
18 | Nc1ncc2ccc(Cl)cc2c1C#Cc1ccc(C(=O)N2CCC(N3CCCCC3)CC2)cc1 [HSN135] | – | – | – | – | 0.033 µM | 100% | 35% | 0% | 21% | –
19 | Nc1ccc(CCNC(=O)c2ccc(C#Cc3c(N)ncc4ccc(Cl)cc34)cc2)cc1 [HSN136] | – | – | – | – | 0.095 µM | 86% | 33% | 0% | 38% | –
20 | Nc1ncc2ccc(Cl)cc2c1C#Cc1ccc(C(=O)NCCN2CCCCC2)cc1 [HSN137] | – | – | – | – | 0.006 µM | 99% | 74% | 20% | 60% | –
21 | CC(C)(C)c1cc(NC(=O)Nc2ccc(-c3cn4c(n3)sc3cc(OCCN5CCOCC5)ccc34)cc2)no1 [Quizartinib, quizartinib, reference compound] | 0.001 ± 0.001 µM | 0.001 ± 0.001 µM | – | – | – | – | – | – | – | –
22 | (E)-4-(2-(3-amino-6-chloroisoquinolin-4-yl)vinyl)-N-hydroxybenzimidamide [HSM1859] | – | – | – | – | – | – | – | – | – | % inhibition of c-Kit (c-kit): 62%; % inhibition of TrkC (TRKC): 42%
